# Results reported in patent publication US8981179B2, “Transgenic non-human animal and uses thereof” (Sanofi, priority 2009, dated 2015).
# Columns and labels:
# [1] = molecular target: T1, glucagon-like peptide 1 receptor (GLP-1R) (Mus musculus, UniProt O35659); test: Induction of luciferase reporter by GLP-1R agonist in CRE-Luc mice (bioimaging, tissue homogenates); assay type: in vivo
# T1 construct: from tissue; host or cells: whole animal; bioimaging and tissue homogenates, signal in the pancreas
# T1 sequence (O35659 22-463): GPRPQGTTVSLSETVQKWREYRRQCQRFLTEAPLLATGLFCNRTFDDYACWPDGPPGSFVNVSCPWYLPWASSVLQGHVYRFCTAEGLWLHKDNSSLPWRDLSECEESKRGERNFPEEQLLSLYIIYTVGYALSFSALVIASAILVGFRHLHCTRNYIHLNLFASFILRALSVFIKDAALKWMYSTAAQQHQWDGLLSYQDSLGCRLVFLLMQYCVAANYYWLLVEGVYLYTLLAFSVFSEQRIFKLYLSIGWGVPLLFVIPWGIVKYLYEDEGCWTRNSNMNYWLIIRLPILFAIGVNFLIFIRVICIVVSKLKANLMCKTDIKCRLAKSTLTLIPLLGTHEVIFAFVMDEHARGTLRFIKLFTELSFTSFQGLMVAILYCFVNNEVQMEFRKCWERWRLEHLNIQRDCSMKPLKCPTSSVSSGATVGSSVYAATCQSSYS
# Experimental: Transgene activation co-localizes with tissue specific receptor activation as exemplified by the induction of luciferase reporter by the glucagon-like peptide 1 receptor (GLP-1R) agonist, AVE0010, which was studied in three independent lines of CRE-Luc mice (FIG. 28). The GLP-1R is Gs coupled. Baseline images were acquired on day 1. On day 2, mice were treated with AVE0010 (0.1 mg/kg, sc) and imaged after 4 hours. Folds of induction over baseline were indicated at the bottom. […] Luciferase activities in 8 different tissues were measured for lines 11, 16 and 90 (FIG. 29) following treatment with AVE0010 (0.1 mg/kg, s.c.) for 4 hours. […] The activity of AVE0010 is limited to the pancreas even though GLP-1R is found in different tissue types.
# The induction of Cre-Luc by AVE0010 is likely beta-cell mediated. The effects of the beta-cell toxin streptozotocin (STZ) on the induction of CRE-Luc by AVE0010 was investigated (FIG. 30). Male CRE-luc mice were imaged before and after AVE0010 (0.1 mg/kg, sc) treatment. […] Then, the animals were treated with vehicle or STZ (200 mpk, ip). Four days later, they were imaged again after AVE0010 treatment.
# [2] = Blood glucose in unfasted CRE-luc mice; assay type: in vivo, mouse; details: line 11, AVE0010 0.1 mg/kg, sc
# Experimental: The induction of CRE-Luc by AVE0010 is likely beta-cell-specific (FIG. 31). Animals were treated as described in FIG. 30. Blood glucose levels were measured by tail vein nicking on unfasted mice. Glucose levels were read on a Bayer glucometer. Glucose levels are shown as mg glucose/[…]. Fold induction is the luciferase bioimaging levels of AVE10 dosing versus the baseline signals. Blood glucose levels (BG) were increased by STZ (upper left panel). Non-fasting BG levels were reduced by AVE0010 (0.1 mg/kg, sc).
# mGluR7 [3] = molecular target: T2, mGluR7 (Mus musculus, UniProt Q68ED2); test: Whole brain slice luminescence, Gi agonist with isoproterenol; assay type: cell-based; design: from tissue; host or cells: hippocampal brain slices, CreLuc mouse line 187; details: line 187, 1 uM AMN082 in combination with 1 uM ISO
# T2 sequence (Q68ED2 35-915): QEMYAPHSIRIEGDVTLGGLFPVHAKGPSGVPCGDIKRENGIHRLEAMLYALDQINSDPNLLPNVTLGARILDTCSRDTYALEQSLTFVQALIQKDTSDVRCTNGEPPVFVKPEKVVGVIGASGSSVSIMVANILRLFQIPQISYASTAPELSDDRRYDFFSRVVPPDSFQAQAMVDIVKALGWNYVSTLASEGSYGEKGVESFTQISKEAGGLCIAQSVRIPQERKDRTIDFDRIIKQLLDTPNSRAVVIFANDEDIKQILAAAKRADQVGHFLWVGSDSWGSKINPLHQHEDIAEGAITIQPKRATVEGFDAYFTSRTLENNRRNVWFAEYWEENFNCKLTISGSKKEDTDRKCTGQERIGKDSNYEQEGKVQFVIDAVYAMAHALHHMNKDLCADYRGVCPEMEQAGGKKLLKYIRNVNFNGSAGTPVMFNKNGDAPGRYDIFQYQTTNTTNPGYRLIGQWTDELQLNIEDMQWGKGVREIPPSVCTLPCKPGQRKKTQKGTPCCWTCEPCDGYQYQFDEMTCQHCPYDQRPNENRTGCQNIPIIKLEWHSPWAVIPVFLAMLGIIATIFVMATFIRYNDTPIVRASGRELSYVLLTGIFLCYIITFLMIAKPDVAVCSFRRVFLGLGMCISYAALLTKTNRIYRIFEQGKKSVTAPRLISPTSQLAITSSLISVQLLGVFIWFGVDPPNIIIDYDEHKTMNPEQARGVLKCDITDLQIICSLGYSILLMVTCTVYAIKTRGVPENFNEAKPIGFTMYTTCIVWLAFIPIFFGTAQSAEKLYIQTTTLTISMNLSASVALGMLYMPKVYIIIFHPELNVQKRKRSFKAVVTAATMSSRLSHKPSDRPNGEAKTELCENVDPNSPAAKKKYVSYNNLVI
# Experimental: Whole brain slices were used to show the effects of compounds on luminescence in CreLuc mice (FIG. 8A, 8B). In general, brains from CreLuc mice can be harvested and then either cut into slices on a microtome or various subregions can also be dissected out and then sliced on a microtome. The slices can then be incubated with different compounds such as forskolin and rolipram, or GPCR specific compounds. Luciferase levels can then be measured with an IVIS bioimager or a photomultiplier with a carousel to take quantitative timecourse measurements.
# Brain slices from the hippocampal region of CreLuc mice (line #187) were incubated with 1 uM isoproterenol (Sigma, cat#5627) for 2 days. […] (FIG. 8A, bottom panel). Thus, isoproterenol was used to increase the luciferase signal window which allows for screening GPCR specific compounds such as Gi agonists. AMN082 (AMN, Tocris Bioscience, Cat. No. 2385) is an mGluR7 agonist and mGluR7 is a receptor that is coupled to Gi. When brain slices were treated with 1 uM ISO in combination with 1 uM AMN082, the luciferase signal was diminished in comparison to ISO treatment alone.
# mGluR7 [4] = molecular target: T2, mGluR7; test: Primary cortical neurons CreLuc luciferase assay, Gi modulation via mGluR7; assay type: cell-based; design: endogenous in cells; host or cells: primary cortical neurons, E18 embryos, CreLuc mouse line 187
# Source text: (§1) A general schematic of the workflow for the isolation and compound treatment of primary neuronal cells from the CreLuc model is depicted in FIG. 9. Cortices or other brain subregions are removed from embryos, usually embryonic (E) day 17 or 18, but also as early as E14. The individual neurons are then isolated and plated onto 96 well assay plates. Assays are run either in triplicate or quadruplicate. The assays are run from day 3 in culture up until day 7 or day 10 in culture depending on the expression levels of the target GPCR. Compounds are added to the plates then at a set timepoint, Bright Glo (Promega, Cat #E2610) is added to the plates and the assay is then run on a TopCount or other luminometer.
# Primary cell cultures from the CreLuc mice may be used to screen compounds that are capable of modulating Gi coupled receptors. […] Cortical neurons were harvested from E18 embryos. The assay was run at day 3 in culture. Forskolin was used at 10 μM to give a larger signal window to be used to detect Gi activity. The mGluR7 agonist, AMN082 was used in combination with forskolin at 1 nM, 10 nM, 100 nM and 1 μM. The assay was read on a TopCount with Bright Glo (Promega) at 4 hours, and 8 hours. […] The CreLuc mice can be used to screen for compounds that modulate Gq coupled receptors.
# However, to increase the signal window even wider, rolipram (blocks the breakdown of cAMP) was used in combination with forskolin. Primary cortical neurons were isolated from E18 embryos from line 187 which was previously determined to have inducible brain and spinal cord expression. The assay, in triplicates, was run at day 7 in culture for 6 hours. A dose curve, 10 μM down to 1 nM, for AMN082 was run in combination with 50 μM forskolin and 10 μM rolipram. The assay was read on a TopCount luminometer with Bright Glo substrate (Promega). […] All lines used were previously determined to have inducible luciferase expression levels in whole brain tissue extracts (data not shown). […] Bright Glo luciferase assay substrate was then added, and the assay read on a Topcount luminometer. […]
# [5] = molecular target: T3, D1 dopamine receptors (DRD1) (Mus musculus, UniProt Q61616); test: Primary cortical neurons CreLuc luciferase assay, Gs modulation via DRD1; assay type: cell-based; details: 4 hours
# T3 construct: Neurons were isolated from the cortices of line 187 E18 embryos; endogenous in cells; host or cells: primary cortical neurons (E18) and striatal neurons (E14), CreLuc mouse line 187
# T3 sequence (Q61616 whole entry): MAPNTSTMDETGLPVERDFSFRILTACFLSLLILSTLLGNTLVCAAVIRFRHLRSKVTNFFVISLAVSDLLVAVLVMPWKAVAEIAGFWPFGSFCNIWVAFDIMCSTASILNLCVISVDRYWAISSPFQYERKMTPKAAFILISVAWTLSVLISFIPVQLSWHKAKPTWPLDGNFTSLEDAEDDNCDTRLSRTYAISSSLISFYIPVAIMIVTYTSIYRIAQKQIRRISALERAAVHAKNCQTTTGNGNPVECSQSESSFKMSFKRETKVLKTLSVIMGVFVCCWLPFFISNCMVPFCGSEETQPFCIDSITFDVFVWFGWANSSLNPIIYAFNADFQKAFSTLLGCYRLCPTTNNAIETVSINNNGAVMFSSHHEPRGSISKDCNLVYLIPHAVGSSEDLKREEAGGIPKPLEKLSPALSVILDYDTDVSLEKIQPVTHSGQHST
# Source text: as §1
# The assay was run in triplicates on day three in culture. Forskolin was used at 5 μM, rolipram at 10 μM and the Gs agonists, ADβR-isoproterenol; and Dopamine-SKF82958 (MFG, Cat #C130) at 10 μM. At 4 hours, Bright Glo was added and the assays run on a Topcount. Forskolin is a general activator of cAMP.
# CB1 = molecular target: T4, CB1 (Mus musculus, UniProt P47746); test: Primary cortical neurons CreLuc luciferase assay, Gi modulation by CB1 agonist; assay type: cell-based
# T4 construct: endogenous in cells; host or cells: primary cortical neurons, E18, CreLuc mouse lines 69, 187, 175, 219
# T4 sequence (P47746 whole entry): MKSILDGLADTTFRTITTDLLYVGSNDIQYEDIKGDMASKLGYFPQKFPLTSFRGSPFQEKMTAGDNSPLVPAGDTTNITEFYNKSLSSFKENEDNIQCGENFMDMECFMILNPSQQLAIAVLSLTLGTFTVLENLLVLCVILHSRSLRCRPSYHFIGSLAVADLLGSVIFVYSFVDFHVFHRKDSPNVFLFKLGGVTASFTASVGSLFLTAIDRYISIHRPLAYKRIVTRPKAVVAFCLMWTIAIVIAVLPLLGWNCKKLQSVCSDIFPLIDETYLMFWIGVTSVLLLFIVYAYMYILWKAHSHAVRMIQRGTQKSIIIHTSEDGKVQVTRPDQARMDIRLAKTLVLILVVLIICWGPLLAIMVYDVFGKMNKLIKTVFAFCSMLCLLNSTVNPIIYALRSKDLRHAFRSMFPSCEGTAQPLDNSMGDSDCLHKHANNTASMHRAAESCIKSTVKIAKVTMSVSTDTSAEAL
# Experimental: However, to increase the signal window even wider, rolipram (blocks the breakdown of cAMP) was used in combination with forskolin. Primary cortical neurons were isolated from E18 embryos from line 187 which was previously determined to have inducible brain and spinal cord expression. The assay, in triplicates, was run at day 7 in culture for 6 hours. A dose curve, 10 μM down to 1 nM, for AMN082 was run in combination with 50 μM forskolin and 10 μM rolipram. The assay was read on a TopCount luminometer with Bright Glo substrate (Promega). […] Gi modulation of luciferase expression in primary cortical neurons from different CreLuc lines by the CB1 agonist, CP 55,940 was performed in the presence of forskolin and rolipram (FIG. 15). Primary cortical neurons were harvested from lines 69, 187, 175 and 219 at E18. All lines used were previously determined to have inducible luciferase expression levels in whole brain tissue extracts (data not shown). The assays were run on day three in culture. The CB1 agonist was used at 10 μM, forskolin at 5 μM and rolipram at 10 μM. […] Bright Glo luciferase assay substrate was then added, and the assay read on a Topcount luminometer. […]
# Gi modulation of luciferase in primary cortical neurons from CreLuc mice by the CB1 agonist, CP 55,940 was in a dose-dependent manner (FIG. 15B). […] The assay was read on a TopCount with BrightGlo (Promega) at 8 hours.
# plasma cAMP = details: Balb/c mice, 10 mg/kg, blood harvested after 20 minutes; cited from earlier work
# [6] = molecular target: T5, adrenoceptor beta3 (Adrb3) (Mus musculus, UniProt P25962); test: Induction of luciferase by Adrb3 agonist in CRE-Luc mice (tissue homogenates, bioimaging); assay type: in vivo; details: 1 mg/kg, ip
# T5 construct: from tissue; host or cells: whole animal; luciferase read in tissue homogenates (adipose tissue, lung and others) and by bioimaging
# T5 sequence (P25962 whole entry): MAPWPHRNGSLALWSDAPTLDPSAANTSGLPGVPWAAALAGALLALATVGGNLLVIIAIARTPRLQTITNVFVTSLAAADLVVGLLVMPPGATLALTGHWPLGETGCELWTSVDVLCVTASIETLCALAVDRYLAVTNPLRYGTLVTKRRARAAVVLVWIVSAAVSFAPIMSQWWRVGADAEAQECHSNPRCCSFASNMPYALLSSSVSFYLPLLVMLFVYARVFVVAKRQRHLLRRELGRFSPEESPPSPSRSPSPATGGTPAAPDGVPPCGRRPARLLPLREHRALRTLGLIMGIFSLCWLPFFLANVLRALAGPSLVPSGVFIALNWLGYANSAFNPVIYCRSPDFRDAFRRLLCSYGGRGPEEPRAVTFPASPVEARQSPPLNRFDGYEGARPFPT
# Experimental: The luciferase assay was performed in tissue homogenates.
compound,measurement,setting,value
AVE0010: glucagon-like peptide 1 receptor (GLP-1R) agonist,luciferase activity in tissue homogenates of 8 tissues,"[1]; lines 11, 16 and 90, 0.1 mg/kg, s.c., 4 hours",pancreas-specific induction of luciferase
same,bioimaging response of mice before and after treatment,"[1]; male line 11, 0.1 mg/kg, sc",responsive
same,transgene activation in the pancreas (bioimaging),"[1]; three independent lines, 0.1 mg/kg, sc, imaged after 4 hours",strong induction
same,non-fasting BG levels,[2],reduced
Cl.Cl.c1ccc(C(NCCNC(c2ccccc2)c2ccccc2)c2ccccc2)cc1 [AMN082],luciferase signal in brain slices in comparison to ISO treatment alone,mGluR7 [3],diminished
same,luciferase levels versus forskolin only,"mGluR7 [4]; cortical neurons line 187, day 3, 10 μM forskolin, 100 nM and 1 μM AMN082, 4 hours and 8 hours",Significant decreases
same,EC50,"mGluR7 [4]; cortical neurons line 187, day 3, in combination with 10 μM forskolin, 4 hours, read-out: calculated EC50 (Gi modulation of luciferase)",174 nM
same,decreases in luciferase levels vs. forskolin and rolipram controls,"mGluR7 [4]; cortical neurons line 187, day 7, 6 hours, 50 μM forskolin and 10 μM rolipram, at 1 μM, 100 nM and 1 nM, p<0.0005",59-61%
C=CCN1CCc2c(cc(O)c(O)c2Cl)C(c2ccccc2)C1 (stereo not drawn) [SKF82958],induction of luciferase in combination with rolipram compared to rolipram alone,"[5]; cortical neurons line 187, 10 μM with 10 μM rolipram",2 fold
same,"luciferase levels, agonist alone","[5]; cortical neurons line 187, day 3, 10 μM",did not significantly increase
"CCCCCCC(C)(C)c1ccc([C@@H]2C[C@H](O)CC[C@H]2CCCO)c(O)c1 [CP 55,940]","luciferase levels, agonist plus forskolin and rolipram versus forskolin and rolipram alone","CB1; cortical neurons line 187, 10 μM, 1 μM and 100 nM, forskolin and rolipram 10 μM, 8 hours",Significant decreases
same,luciferase signal with addition of CB1 agonist in different CreLuc lines,"CB1; lines 69, 187, 175 and 219, 10 μM with forskolin 5 μM and rolipram 10 μM, four and twenty-four hours",Decreased signals
"COc1ccc(C2CNC(=O)NC2)cc1O[C@H]1C[C@@H]2CC[C@H]1C2 [CP-80,633]",plasma cAMP levels,plasma cAMP,significantly increase
"C[C@H](Cc1ccc2c(c1)OC(C(=O)[O-])(C(=O)[O-])O2)NC[C@H](O)c1cccc(Cl)c1.[Na+].[Na+] [CL316,243]",induction via bioimaging,"[6]; 4 lines, BLI 4-5 hours after treatment",visible induction
same,induction of luciferase in the adipose tissue and lung (tissue homogenates),[6]; 7 of 12 independent transgenic lines screened,greater than 10 fold
